Assay results taken from patent publication US20220267390A1, “MPS MODIFIED PEPTIDES AND USE THEREOF” (The Regents of the University of California, priority 2019, published 2022).
Where no end group is shown, it is not given here.

Columns and labels:
Assay type in all cases: cell-based, human
IPF fibroblast cells = assay: cells; conditions: 72 h
Experimental: FIG. 14: Comparison of MPS-12042 (SEQ ID NO: 45) versus know tyrosine kinase inhibitor (TKLs) on the treatment of IPF fibroblast cells. Both normal and IPF lung fibroblast cells were treated with various drugs. After 72 hours, cells were subjected to MTT assays and IC50 for each drug was determined.
Human primary fibroblast cells were obtained from airway tissues provided from the UC Davis Medical Hospital (Sacramento, Calif.) with consent. The protocol for human tissue procurement and usage were periodically reviewed and approved by the University Human Subject Research Review Committee. Primary fibroblast cell lines, IPF-1 and IPF-2 cells, were established from IPF patients. Cells were obtained from lung biopsies and the diagnosis of IPF was supported by patient history, physical examination, pulmonary function tests, and typical high-resolution chest computed tomography findings of IPF. […] All patients fulfilled the criteria for the diagnosis of IPF as established by the American Thoracic Society and European Respiratory Society. Non-fibrotic primary control adult human lung fibroblast lines, Normal-1 and Normal-2 cells were used. These lines were established from normal lung tissue or histologically normal lung tissue adjacent to carcinoid tumor. The IPF cell line, LL97A, was purchased from the American Type Culture Collection (ATCC) (Manassas, Va.). Lung fibroblast lines were cultured in high-glucose DMEM or RPMI-1640 medium with 10% fetal bovine serum and 1% penicillin-streptomycin at 37° C. in a humidified atmosphere of 5% CO2. Fibroblasts were used between passages 4 and 8. Cells were characterized as fibroblasts as described^26.
Cells were seeded onto 96-well plates at a density of 5-10×10^3 cells per well and cultured for the indicated treatment. Cell proliferation was evaluated using a MTS assay kit (Promega, Madison, Wis.). Twenty microliters of the combined MTS/PMS solution was added into each well, incubated for 3 hours at 37° C., and the absorbance was measured at 490 nm by using an ELISA reader. For Trypan blue test, cells were plated on 12-well plates and treated with the indicated chemotherapeutic agents. After 72 hours, both attached and detached cells were collected and then stained with 0.2% trypan blue (0.1% final concentration), and the number of trypan blue-positive and -negative cells was counted using a haemocytometer under low-power microscopy. For colony-forming assays, 200 cells were seeded in each well of six-well plates. IPF-1 or IPF-2 primary cells were treated with peptides at the indicated concentrations for 10 days. Colonies were stained using 0.001% crystal violet and the number of colonies with a diameter greater than 0.5 mm was counted under an inverted microscope.

PIP3 = assay: Immunocytochemistry with anti-PIP3 antibodies in IPF lung fibroblast cells; conditions: 100 μM, 12 hours
Experimental: Multiple IPF lung fibroblast cells were treated with either PBS or 100 μM of MPS peptide for 12 hours and then subjected to immunocytochemistry using anti-PIP3 antibodies. Representative images are shown (n=3). Scale bar: 20 μm.
MARCKS levels and activity (phospho-MARCKS) were correlated with higher pro-fibrotic activity including cell proliferation, extracellular matrix production, invasiveness, and fibroblast differentiation. Upon treatment with MPS peptides, which target MARCKS activity, Applicant observes attentuation of these activities. The second significant finding was that MARCKS mediates these profibrotic effects through through the PI3K/AKT pathway. […] Targeting of these activities with MPS peptide results in decreased AKT activity and downstream pro-fibrotic signals. The mechanism through which this occurs is through regulation of PIP2 availability at the cell membrane. In an unphosprylated state, MARCKS is able to bind PIP2 at the cell membrane, preventing PI3K proteins from converting PIP2 into PIP3 and effecting downstream AKT activity. Upon phosphorylation, MARCKS is released from the cell membrane into the cytosol, freeing up PIP2 and allowing PI3K to convert PIP2 into PIP3. […] Applicant obtained multiple IPF lung fibroblast cells and treated them with either PBS or 100 μM MPS peptide for 12 hours and subjected to immunocytochemistry utilizing anti-PIP3 antibody.

primary IPF fibroblasts = assay: Combination of nintedanib and MPS peptide, cell viability by MTT, Chou and Talalay CI; conditions: nintedanib 62.5-2000 nM and/or MPS 6.25-200 μM, 72 hours
Experimental: FIGS. 12A-12E: (FIGS. 12A-12B) Combinatorial effect of MPS peptide with nintedanib on fibroblasts isolated from two IPF patients. Cells were treated with various closes of nintedanib (62.5-2000 nM) and/or MPS peptide (6.25-200 μM) for 72 hours, respectively. After single ([…]) or combined ([…]) treatment, cell viability was determined by MTT assays. (FIG. 12C) The Chou and Talalay CI (combination index) method was utilized to evaluate the therapeutic interactions between nintedanib and MPS peptide using the Calcusyn software. Gray line, additive effect of the combination of MPS peptide and the drug is represented at CI=1. (FIG. 12D) Cells were individually treated with 1 μM nintedanib, 100 μM MPS peptide or combinations of 1 μM nintedanib and 100 μM MPS peptide. After 48 hours, cell viability was determined by the trypan blue exclusion assay (n+3; *, p<0.05). […] Molecular basis of MPS peptide and its potential for increasing nintedanib efficacy. […] A kinetic assay confirmed that this peptide binds PIP2 with a dissociation constant of 17.64 nM (FIG. 10B). As expected, a decrease of PIP3 pools in whole cell lysates of MPS-treated IPF fibroblasts was observed (FIG. 10C), supporting the notion that MPS peptide is able to inhibit AKT activation through trapping PIP2. […]

**Q.** For KKKKKRFSFKKSFKLSGFSFKKNKK [MPS peptide], which IC50 (IPF fibroblast cells) is on record?
**A.** 125 to 178 µM

**Q.** What about the PIP3 levels (PIP3) of the same sequence?
**A.** reduced

**Q.** What about the Cell viability (primary IPF fibroblasts) of the same sequence?
**A.** decreased
